# Data reported in ChEMBL document CHEMBL1201862, “PubChem BioAssay data set” (2004).
#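 The compound was tested at five concentrations on cells cultured in 96-well plates, with a 48-hour exposure period. At the GI50, growth is halved.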 Activity calls are given as the source filed them. Cut-off read from the data, not from the text of the source: active = GI50 up to about 1.1 µM and inactive = higher.
# Columns and labels:
# Assay in all cases: inhibition of tumour cell growth, NCI panel, 48 h
# SW-620 = tested on: SW-620
# HL-60 = tested on: HL-60
# HCT-15 = tested on: HCT-15
# SK-MEL-5 = tested on: SK-MEL-5
# SF-268 = tested on: SF-268
# NCI-H23 = tested on: NCI-H23
# TK-10 = tested on: TK-10
# HOP-92 = tested on: HOP-92
# SR = tested on: SR
# NCI-H226 = tested on: NCI-H226
# CCRF-CEM = tested on: CCRF-CEM
# EKVX = tested on: EKVX
# 786-0 = tested on: 786-0
# UACC-62 = tested on: UACC-62
# UO-31 = tested on: UO-31
# COLO 205 = tested on: COLO 205
# RXF 393 = tested on: RXF 393
# NCI-H522 = tested on: NCI-H522
# OVCAR-5 = tested on: OVCAR-5
# IGROV-1 = tested on: IGROV-1
# A549 = tested on: A549
# M14 = tested on: M14
# OVCAR-8 = tested on: OVCAR-8
# Hs-578T = tested on: Hs-578T
# A498 = tested on: A498
# NCI-H460 = tested on: NCI-H460
# HT-29 = tested on: HT-29
# DU-145 = tested on: DU-145
# K562 = tested on: K562
# LOX IMVI = tested on: LOX IMVI
# BT-549 = tested on: BT-549
# ACHN = tested on: ACHN
# SF-539 = tested on: SF-539
# SK-MEL-2 = tested on: SK-MEL-2
# Malme-3M = tested on: Malme-3M
# SNB-19 = tested on: SNB-19
# SN12C = tested on: SN12C
# SK-OV-3 = tested on: SK-OV-3
# MDA-MB-435 = tested on: MDA-MB-435
# SF-295 = tested on: SF-295
# U-251 = tested on: U-251
# MDA-N = tested on: MDA-N
# OVCAR-3 = tested on: OVCAR-3
# MOLT-4 = tested on: MOLT-4
# PC-3 = tested on: PC-3
# MDA-MB-231 = tested on: MDA-MB-231
# UACC-257 = tested on: UACC-257
# HCT-116 = tested on: HCT-116
# CAKI-1 = tested on: CAKI-1
# RPMI-8226 = tested on: RPMI-8226
# NCI/ADR-RES = tested on: NCI/ADR-RES
# SNB-75 = tested on: SNB-75
# MCF7 = tested on: MCF7
# KM12 = tested on: KM12
# OVCAR-4 = tested on: OVCAR-4
# HCC 2998 = tested on: HCC 2998
smiles,measurement,setting,value
COc1ccc(N2C(=O)C3c4[nH]c5ccc(C)cc5c4C4CCC(C)CC4C3C2=O)cc1 (stereo not given),GI50,SW-620,> 100 µM (inactive)
same,GI50,HL-60,> 10 µM (inactive)
same,GI50,HCT-15,> 100 µM
same,GI50,SK-MEL-5,> 100 µM (inactive)
same,GI50,SF-268,37.8 µM (inactive)
same,GI50,NCI-H23,59 µM (inactive)
same,GI50,TK-10,34.4 µM (inactive)
same,GI50,HOP-92,76.2 µM (inactive)
same,GI50,SR,23.2 µM (inactive)
same,GI50,NCI-H226,> 100 µM (inactive)
same,GI50,CCRF-CEM,18.5 µM (inactive)
same,GI50,EKVX,> 100 µM (inactive)
same,GI50,786-0,25.7 µM (inactive)
same,GI50,UACC-62,52.7 µM (inactive)
same,GI50,UO-31,> 100 µM (inactive)
same,GI50,COLO 205,> 100 µM (inactive)
same,GI50,RXF 393,20.7 µM (inactive)
same,GI50,NCI-H522,92 µM (inactive)
same,GI50,OVCAR-5,> 100 µM (inactive)
same,GI50,IGROV-1,> 100 µM (inactive)
same,GI50,A549,> 100 µM (inactive)
same,GI50,M14,> 100 µM (inactive)
same,GI50,OVCAR-8,> 100 µM (inactive)
same,GI50,Hs-578T,4.65 µM (inactive)
same,GI50,A498,21.6 µM (inactive)
same,GI50,NCI-H460,> 100 µM (inactive)
same,GI50,HT-29,> 100 µM (inactive)
same,GI50,DU-145,> 100 µM (inactive)
same,GI50,K562,66.7 µM (inactive)
same,GI50,LOX IMVI,> 100 µM (inactive)
same,GI50,BT-549,> 100 µM (inactive)
same,GI50,ACHN,99.3 µM (inactive)
same,GI50,SF-539,17.7 µM (inactive)
same,GI50,SK-MEL-2,33.3 µM (inactive)
same,GI50,Malme-3M,> 100 µM (inactive)
same,GI50,SNB-19,61.2 µM (inactive)
same,GI50,SN12C,> 100 µM (inactive)
same,GI50,SK-OV-3,25.3 µM (inactive)
same,GI50,MDA-MB-435,> 100 µM (inactive)
same,GI50,SF-295,27.1 µM (inactive)
same,GI50,U-251,53.7 µM (inactive)
same,GI50,MDA-N,> 100 µM (inactive)
same,GI50,OVCAR-3,58.1 µM (inactive)
same,GI50,MOLT-4,67.5 µM (inactive)
same,GI50,PC-3,> 100 µM (inactive)
same,GI50,MDA-MB-231,15.1 µM (inactive)
same,GI50,UACC-257,> 100 µM (inactive)
same,GI50,HCT-116,36.5 µM (inactive)
same,GI50,CAKI-1,> 100 µM (inactive)
same,GI50,RPMI-8226,> 100 µM (inactive)
same,GI50,NCI/ADR-RES,44.7 µM (inactive)
C[C@]12CC[C@@H]3c4cc(OCC(F)(F)F)c(O)cc4/C(=N/O)C[C@H]3[C@@H]1CC[C@@H]2O,GI50,SK-MEL-5,0.0232 µM (active)
same,GI50,SF-268,0.0484 µM (active)
same,GI50,SNB-75,< 0.01 µM (active)
same,GI50,MCF7,0.0247 µM (active)
same,GI50,TK-10,23.7 µM (inactive)
same,GI50,HOP-92,0.33 µM (active)
same,GI50,NCI-H226,0.27 µM (active)
same,GI50,KM12,0.537 µM (active)
same,GI50,CCRF-CEM,< 0.0163 µM (active)
same,GI50,EKVX,0.23 µM (active)
same,GI50,COLO 205,16 µM (inactive)
same,GI50,OVCAR-5,12.9 µM (inactive)
same,GI50,IGROV-1,0.147 µM (active)
same,GI50,A549,0.0372 µM (active)
same,GI50,OVCAR-4,7 µM (inactive)
same,GI50,Hs-578T,0.0215 µM (active)
same,GI50,HCC 2998,2.82 µM (inactive)
same,GI50,A498,0.0977 µM (active)
same,GI50,HT-29,3.62 µM (inactive)
same,GI50,BT-549,< 0.01 µM (active)
same,GI50,SF-539,0.0188 µM (active)
same,GI50,SK-MEL-2,0.0351 µM (active)
same,GI50,Malme-3M,0.0299 µM (active)
same,GI50,SNB-19,0.025 µM (active)
same,GI50,SN12C,0.0873 µM (active)
same,GI50,SK-OV-3,0.0384 µM (active)
same,GI50,MDA-MB-435,< 0.0126 µM (active)
same,GI50,U-251,0.026 µM (active)
same,GI50,MDA-N,0.011 µM (active)
same,GI50,OVCAR-3,0.0156 µM (active)
same,GI50,PC-3,2.56 µM (inactive)
same,GI50,MDA-MB-231,0.0592 µM (active)
same,GI50,UACC-257,0.0509 µM (active)
same,GI50,CAKI-1,0.0468 µM (active)
